Experimental data published in PubChem BioAssay AID248 (DTP/NCI, 2004).
Several values for one entry are separate records, joined by “and”; a condition that tells them apart may be missing. Equal entries are not always repeated. Toxic doses and inconclusive results are not listed. No stated cut-off is given here; in the data, active means T/C of 150% or more; inactive means T/C below 125%.

Tested on: L1210 leukemia ip in BDF1 mice, survival T/C
Assay: NCI In Vivo Anticancer Drug Screen. Data for tumor model L1210 Leukemia (intraperitoneal) in B6D2F1 (BDF1) mice
Conditions: endpoint: mean survival time, higher = longer survival
Procedure, shortened: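 Survival endpoint. Drug-treated group vs vehicle group, expressed as T divided by C. Tumor passaged by transplantation.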

[1] = dose: 50.0 mg/kg/injection, schedule: Q01DX009 (ip), vehicle: Klucel (hydroxypropylcellulose) (HPC)
[2] = dose: 100.0 mg/kg/injection, schedule: Q01DX009 (ip), vehicle: Klucel (hydroxypropylcellulose) (HPC)
[3] = dose: 100.0 mg/kg/injection, schedule: Q04DX003 (ip), vehicle: Klucel (hydroxypropylcellulose) (HPC)
[4] = dose: 200.0 mg/kg/injection, schedule: Q01DX009 (ip), vehicle: Klucel (hydroxypropylcellulose) (HPC)
[5] = dose: 200.0 mg/kg/injection, schedule: Q04DX003 (ip), vehicle: Klucel (hydroxypropylcellulose) (HPC)
[6] = dose: 400.0 mg/kg/injection, schedule: Q01DX009 (ip), vehicle: Klucel (hydroxypropylcellulose) (HPC)
[7] = dose: 400.0 mg/kg/injection, schedule: Q04DX003 (ip), vehicle: Klucel (hydroxypropylcellulose) (HPC)
[8] = dose: 100.0 mg/kg/injection, schedule: Q01DX009 (ip), vehicle: saline with Tween-80
[9] = dose: 200.0 mg/kg/injection, schedule: Q01DX009 (ip), vehicle: saline with Tween-80
[10] = dose: 100.0 mg/kg/injection, schedule: Q01DX001 (ip), vehicle: other
[11] = dose: 200.0 mg/kg/injection, schedule: Q01DX001 (ip), vehicle: other
[12] = dose: 400.0 mg/kg/injection, schedule: Q01DX001 (ip), vehicle: other
[13] = dose: 100.0 mg/kg/injection, schedule: Q01DX001 (ip), vehicle: carboxymethylcellulose (CMC)
[14] = dose: 200.0 mg/kg/injection, schedule: Q01DX001 (ip), vehicle: carboxymethylcellulose (CMC)
[15] = dose: 400.0 mg/kg/injection, schedule: Q01DX001 (ip), vehicle: carboxymethylcellulose (CMC)
[16] = dose: 5.0 mg/kg/injection, schedule: Q01DX001 (ip), vehicle: saline
[17] = dose: 100.0 mg/kg/injection, schedule: Q04DX002 (ip), vehicle: saline with Tween-80
[18] = dose: 200.0 mg/kg/injection, schedule: Q04DX002 (ip), vehicle: saline with Tween-80
[19] = dose: 400.0 mg/kg/injection, schedule: Q04DX002 (ip), vehicle: saline with Tween-80
[20] = dose: 400.0 mg/kg/injection, schedule: Q01DX009 (ip), vehicle: saline with Tween-80
[21] = dose: 100.0 mg/kg/injection, schedule: Q01DX001 (ip), vehicle: saline
[22] = dose: 200.0 mg/kg/injection, schedule: Q01DX001 (ip), vehicle: saline
[23] = dose: 400.0 mg/kg/injection, schedule: Q01DX001 (ip), vehicle: saline

Measured: T/C

ClCCN1CCOCC1
inactive: dose: 25.0 mg/kg/injection, schedule: Q01DX009 (ip), vehicle: saline 97 % of control | dose: 25.0 mg/kg/injection, schedule: Q04DX003 (ip), vehicle: saline 93 % of control and 106 % of control | dose: 50.0 mg/kg/injection, schedule: Q01DX009 (ip), vehicle: saline 100 % of control | dose: 50.0 mg/kg/injection, schedule: Q04DX003 (ip), vehicle: saline 93 % of control and 111 % of control | dose: 100.0 mg/kg/injection, schedule: Q04DX003 (ip), vehicle: saline 98 % of control and 104 % of control and 108 % of control

CCOC(CNC(=O)OCc1ccccc1)OCC
inactive: [1] 98 % of control | [2] 96 % of control and 106 % of control | [3] 96 % of control | dose: 150.0 mg/kg/injection, schedule: Q01DX009 (ip), vehicle: Klucel (hydroxypropylcellulose) (HPC) 102 % of control | [4] 98 % of control | [5] 105 % of control | [6] 101 % of control | [7] 97 % of control

O=CC1OC(c2ccccc2)OC2COC(c3ccccc3)OC12 (centres undefined)
inactive: dose: 100.0 mg/kg/injection, schedule: Q01DX001 (ip), vehicle: Klucel (hydroxypropylcellulose) (HPC) 103 % of control | dose: 200.0 mg/kg/injection, schedule: Q01DX001 (ip), vehicle: Klucel (hydroxypropylcellulose) (HPC) 97 % of control | dose: 400.0 mg/kg/injection, schedule: Q01DX001 (ip), vehicle: Klucel (hydroxypropylcellulose) (HPC) 93 % of control

CC(O)C(c1ccccc1)c1ccccc1 (centres undefined)
inactive: dose: 50.0 mg/kg/injection, schedule: Q01DX009 (ip), vehicle: saline with Tween-80 94 % of control | [8] 102 % of control | [9] 97 % of control

O=C(NC(=O)C(C(=O)c1ccccc1)c1ccccc1)c1ccccc1 (centres undefined)
inactive: [10] 86 % of control | [11] 89 % of control | [12] 91 % of control

O=C(O)COc1ccccc1
inactive: dose: 25.0 mg/kg/injection, schedule: Q01DX009 (ip), vehicle: Klucel (hydroxypropylcellulose) (HPC) 108 % of control | [1] 105 % of control | [2] 93 % of control and 88 % of control

CCCCC(=O)N/N=C\c1cc(Cl)cc(Cl)c1
inactive: [13] 100 % of control | [14] 93 % of control | [15] 96 % of control

COC(=O)C(C)[P+](c1ccccc1)(c1ccccc1)c1ccccc1 (centres undefined)
inactive: dose: 1.25 mg/kg/injection, schedule: Q01DX009 (ip), vehicle: saline 108 % of control | dose: 1.65 mg/kg/injection, schedule: Q01DX009 (ip), vehicle: saline 104 % of control and 114 % of control | dose: 2.5 mg/kg/injection, schedule: Q01DX001 (ip), vehicle: saline 96 % of control | dose: 2.5 mg/kg/injection, schedule: Q01DX009 (ip), vehicle: saline 107 % of control and 119 % of control | dose: 3.75 mg/kg/injection, schedule: Q01DX009 (ip), vehicle: saline 109 % of control and 110 % of control | [16] 110 % of control | dose: 5.0 mg/kg/injection, schedule: Q01DX009 (ip), vehicle: saline 97 % of control

CCCCCCCCC1OC1CCCCCCCC(N)=O (centres undefined)
inactive: [17] 92 % of control | [18] 88 % of control | [19] 100 % of control

COC(=O)c1cc(S(=O)(=O)c2cc(C)c(O)c(C(=O)OC)c2)cc(C)c1O
inactive: dose: 100.0 mg/kg/injection, schedule: Q04DX002 (ip), vehicle: carboxymethylcellulose (CMC) 92 % of control | dose: 200.0 mg/kg/injection, schedule: Q04DX002 (ip), vehicle: carboxymethylcellulose (CMC) 95 % of control | dose: 400.0 mg/kg/injection, schedule: Q04DX002 (ip), vehicle: carboxymethylcellulose (CMC) 95 % of control

CC1(C)CCC2(C)CC=C3OC(=O)CCC3(C)C2C1 (centres undefined)
inactive: [8] 92 % of control | [3] 102 % of control | [9] 89 % of control | [5] 98 % of control | [20] 94 % of control | [7] 94 % of control

CC(CCc1ccccn1)C(=O)c1ccccc1 (centres undefined)
inactive: dose: 222.0 mg/kg/injection, schedule: Q01DX Z (ip), vehicle: methylcellulose (MC) 93 % of control | dose: 333.0 mg/kg/injection, schedule: Q01DX Z (ip), vehicle: methylcellulose (MC) 98 % of control | dose: 500.0 mg/kg/injection, schedule: Q01DX Z (ip), vehicle: methylcellulose (MC) 94 % of control

Cc1ccc(C(=O)Nc2ccc3c(c2)Cc2ccccc2-3)cc1
inactive: dose: 50.0 mg/kg/injection, schedule: Q01DX001 (ip), vehicle: saline 101 % of control | dose: 50.0 mg/kg/injection, schedule: Q04DX003 (ip), vehicle: Klucel (hydroxypropylcellulose) (HPC) 104 % of control | [21] 101 % of control | [3] 100 % of control | [22] 101 % of control | [5] 94 % of control | [23] 95 % of control

O=C1CCCCC1O (centres undefined)
inactive: [10] 116 % of control | [11] 103 % of control | [12] 95 % of control

O=P(NC12CC3CC(CC(C3)C1)C2)(Oc1ccccc1)Oc1ccccc1
inactive: [3] 101 % of control | [5] 97 % of control | [7] 87 % of control

Cc1ccc(C(C)(C)[CH2][Sn]([CH2]C(C)(C)c2ccc(C)cc2)([CH2]C(C)(C)c2ccc(C)cc2)[CH2]C(C)(C)c2ccc(C)cc2)cc1
inactive: dose: 50.0 mg/kg/injection, schedule: Q04DX002 (ip), vehicle: saline with Tween-80 92 % of control | [17] 100 % of control | [18] 103 % of control | [19] 92 % of control

CC(SC1=NCCN1)C(=O)O (centres undefined)
inactive: [21] 98 % of control | [22] 94 % of control | [23] 98 % of control

C[N+](C)(Cc1ccccc1)Cc1ccccc1
inactive: [16] 96 % of control | dose: 10.0 mg/kg/injection, schedule: Q01DX001 (ip), vehicle: saline 98 % of control | dose: 20.0 mg/kg/injection, schedule: Q01DX001 (ip), vehicle: saline 102 % of control | dose: 40.0 mg/kg/injection, schedule: Q01DX001 (ip), vehicle: saline 102 % of control | dose: 75.0 mg/kg/injection, schedule: Q01DX001 (ip), vehicle: saline 105 % of control | dose: 80.0 mg/kg/injection, schedule: Q01DX001 (ip), vehicle: saline 104 % of control

CC(C)c1ccc(/C=C/C(=O)O)cc1
inactive: dose: 50.0 mg/kg/injection, schedule: Q01DX001 (ip), vehicle: carboxymethylcellulose (CMC) 108 % of control | [13] 97 % of control | [14] 92 % of control | [15] 101 % of control

Cc1ccccc1NC(=O)N(C)N
inactive: dose: 75.0 mg/kg/injection, schedule: Q01DX001 (ip), vehicle: carboxymethylcellulose (CMC) 93 % of control

S=C(Nc1ccccc1)c1ccccn1
inactive: [8] 102 % of control | [9] 100 % of control | [20] 90 % of control

O=c1ccccn1C/C(=N\O)c1ccccc1
inactive: [2] 98 % of control | [3] 107 % of control | [4] 100 % of control | [5] 98 % of control | [6] 107 % of control | [7] 100 % of control

CN(C)C(=O)Oc1c(Cl)c(Cl)c(OC(=O)N(C)C)c(Cl)c1Cl
inactive: dose: 100.0 mg/kg/injection, schedule: Q04DX002 (ip), vehicle: Klucel (hydroxypropylcellulose) (HPC) 94 % of control | dose: 200.0 mg/kg/injection, schedule: Q04DX002 (ip), vehicle: Klucel (hydroxypropylcellulose) (HPC) 105 % of control | dose: 400.0 mg/kg/injection, schedule: Q04DX002 (ip), vehicle: Klucel (hydroxypropylcellulose) (HPC) 90 % of control

NC(Cc1ccccc1)C(=O)O (centres undefined)
inactive: dose: 75.0 mg/kg/injection, schedule: Q01DX001 (ip), vehicle: saline with Tween-80 102 % of control | [13] 93 % of control | [3] 102 % of control | dose: 150.0 mg/kg/injection, schedule: Q01DX001 (ip), vehicle: saline with Tween-80 102 % of control | [14] 96 % of control | [5] 86 % of control | dose: 300.0 mg/kg/injection, schedule: Q01DX001 (ip), vehicle: saline with Tween-80 98 % of control | [15] 93 % of control

O=C(Oc1c(Cl)cc(Cl)cc1C=Nc1ccc(Cl)cc1)c1ccccc1
inactive: [2] 103 % of control | [4] 104 % of control | [6] 96 % of control
